Data from PubChem BioAssay AID248 (DTP/NCI, 2004).
Where “and” joins values, the source holds several entries; their conditions need not be identical. Equal entries are not always repeated. Inconclusive results and toxic doses are left out. Cut-off read from the data, not from the text of the source: active = T/C of 150% or more; inactive = T/C below 125%. Square brackets hold non-standard residues; d marks the D form. Peptide text beside a SMILES is read from it. * marks the point of attachment. ξ: configuration not given here. Cbz = O=C(OCc1ccccc1)*; ξA = CC(N)C(=O)O

System: L1210 leukemia ip in BDF1 mice, survival T/C
Assay: NCI In Vivo Anticancer Drug Screen. Data for tumor model L1210 Leukemia (intraperitoneal) in B6D2F1 (BDF1) mice
Details: endpoint: mean survival time, higher = longer survival
How it was run: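 In this screen, tumor-bearing mice given compound are compared to those given vehicle, and their survival values are reported as a treated-to-control quotient.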

[1] = dose: 100.0 mg/kg/injection, schedule: Q01DX009 (ip), vehicle: Klucel (hydroxypropylcellulose) (HPC)
[2] = dose: 100.0 mg/kg/injection, schedule: Q04DX003 (ip), vehicle: Klucel (hydroxypropylcellulose) (HPC)
[3] = dose: 200.0 mg/kg/injection, schedule: Q01DX009 (ip), vehicle: Klucel (hydroxypropylcellulose) (HPC)
[4] = dose: 200.0 mg/kg/injection, schedule: Q04DX003 (ip), vehicle: Klucel (hydroxypropylcellulose) (HPC)
[5] = dose: 400.0 mg/kg/injection, schedule: Q04DX003 (ip), vehicle: Klucel (hydroxypropylcellulose) (HPC)
[6] = dose: 100.0 mg/kg/injection, schedule: Q01DX001 (ip), vehicle: saline
[7] = dose: 200.0 mg/kg/injection, schedule: Q01DX001 (ip), vehicle: saline
[8] = dose: 400.0 mg/kg/injection, schedule: Q01DX001 (ip), vehicle: saline
[9] = dose: 75.0 mg/kg/injection, schedule: Q01DX001 (ip), vehicle: saline
[10] = dose: 25.0 mg/kg/injection, schedule: Q04DX003 (ip), vehicle: saline with Tween-80
[11] = dose: 50.0 mg/kg/injection, schedule: Q04DX003 (ip), vehicle: saline with Tween-80
[12] = dose: 100.0 mg/kg/injection, schedule: Q04DX003 (ip), vehicle: saline with Tween-80
[13] = dose: 25.0 mg/kg/injection, schedule: Q01DX009 (ip), vehicle: saline with Tween-80
[14] = dose: 50.0 mg/kg/injection, schedule: Q01DX009 (ip), vehicle: saline with Tween-80
[15] = dose: 100.0 mg/kg/injection, schedule: Q01DX009 (ip), vehicle: saline with Tween-80

Measured: T/C

O=c1[nH][nH]c(=O)c2ccccc12
inactive: dose: 50.0 mg/kg/injection, schedule: Q01DX001 (ip), vehicle: other 103 % of control | dose: 100.0 mg/kg/injection, schedule: Q01DX001 (ip), vehicle: other 103 % of control | [1] 111 % of control and 116 % of control | [2] 108 % of control | dose: 200.0 mg/kg/injection, schedule: Q01DX001 (ip), vehicle: other 100 % of control | [3] 106 % of control and 105 % of control | [4] 110 % of control | dose: 400.0 mg/kg/injection, schedule: Q01DX001 (ip), vehicle: other 103 % of control | dose: 400.0 mg/kg/injection, schedule: Q01DX009 (ip), vehicle: Klucel (hydroxypropylcellulose) (HPC) 100 % of control | [5] 104 % of control

CC(=O)C(O)COP(=O)(O)O (stereo not drawn)
inactive: dose: 50.0 mg/kg/injection, schedule: Q01DX001 (ip), vehicle: saline 96 % of control | [6] 100 % of control | [7] 102 % of control | [8] 100 % of control

[O-][n+]1c2ccccc2c(Cl)c2ccc3ccccc3c21
inactive: dose: 100.0 mg/kg/injection, schedule: Q04DX002 (ip), vehicle: saline with Tween-80 93 % of control | dose: 200.0 mg/kg/injection, schedule: Q04DX002 (ip), vehicle: saline with Tween-80 90 % of control | dose: 400.0 mg/kg/injection, schedule: Q04DX002 (ip), vehicle: saline with Tween-80 90 % of control

Cc1cc(=O)[nH]c2c1C(=O)c1c(C)cc(=O)n(C)c1C2=O
inactive: dose: 0.75 mg/kg/injection, schedule: Q01DX009 (ip), vehicle: Klucel (hydroxypropylcellulose) (HPC) 95 % of control | dose: 1.0 mg/kg/injection, schedule: Q04DX003 (ip), vehicle: Klucel (hydroxypropylcellulose) (HPC) 93 % of control | dose: 1.5 mg/kg/injection, schedule: Q01DX009 (ip), vehicle: Klucel (hydroxypropylcellulose) (HPC) 100 % of control | dose: 3.0 mg/kg/injection, schedule: Q01DX009 (ip), vehicle: Klucel (hydroxypropylcellulose) (HPC) 95 % of control and 96 % of control | dose: 3.0 mg/kg/injection, schedule: Q04DX003 (ip), vehicle: Klucel (hydroxypropylcellulose) (HPC) 105 % of control | dose: 6.0 mg/kg/injection, schedule: Q04DX003 (ip), vehicle: Klucel (hydroxypropylcellulose) (HPC) 92 % of control

NC(=S)c1c(N)n(C2OC(CO)C(O)C2O)c2ncnc(N)c12 (stereo not drawn)
inactive: dose: 3.12 mg/kg/injection, schedule: Q01DX005 (ip), vehicle: saline 116 % of control | dose: 6.25 mg/kg/injection, schedule: Q01DX005 (ip), vehicle: saline 119 % of control and 124 % of control | dose: 12.5 mg/kg/injection, schedule: Q01DX005 (ip), vehicle: saline 112 % of control and 119 % of control | dose: 25.0 mg/kg/injection, schedule: Q01DX005 (ip), vehicle: saline 105 % of control | dose: 50.0 mg/kg/injection, schedule: Q01DX005 (ip), vehicle: saline 120 % of control

N#CC(C#N)=Cc1ccco1
inactive: dose: 5.0 mg/kg/injection, schedule: Q01DX001 (ip), vehicle: saline 91 % of control | dose: 10.0 mg/kg/injection, schedule: Q01DX001 (ip), vehicle: saline 102 % of control | dose: 20.0 mg/kg/injection, schedule: Q01DX001 (ip), vehicle: saline 100 % of control | dose: 40.0 mg/kg/injection, schedule: Q01DX001 (ip), vehicle: saline 94 % of control

CC(=O)OC1CC2C(=O)CC1(C)C2(C)C (stereo not drawn)
inactive: [9] 102 % of control

CCCC/C(=N\N=C(N)N)c1ccc(F)cc1
inactive: dose: 15.0 mg/kg/injection, schedule: Q01DX Z (ip), vehicle: methylcellulose (MC) 104 % of control | dose: 15.0 mg/kg/injection, schedule: Q01DX Z (oral), vehicle: methylcellulose (MC) 94 % of control | dose: 30.0 mg/kg/injection, schedule: Q01DX Z (ip), vehicle: methylcellulose (MC) 93 % of control | dose: 30.0 mg/kg/injection, schedule: Q01DX Z (oral), vehicle: methylcellulose (MC) 94 % of control

CC(=O)Nc1ccc(SC(=O)N(C)C)cc1
inactive: dose: 12.5 mg/kg/injection, schedule: Q01DX009 (ip), vehicle: saline + alcohol 90 % of control | dose: 25.0 mg/kg/injection, schedule: Q01DX009 (ip), vehicle: saline + alcohol 95 % of control | [10] 98 % of control | dose: 50.0 mg/kg/injection, schedule: Q01DX009 (ip), vehicle: saline + alcohol 101 % of control | [11] 104 % of control | [12] 103 % of control

COc1ccc(NC(=O)Oc2ccc(Br)cc2Br)c(OC)c1
inactive: [1] 108 % of control | [3] 113 % of control

COc1ccccc1N1CCN(CCCC(=O)c2ccc(F)cc2)CC1
inactive: dose: 12.5 mg/kg/injection, schedule: Q01DX009 (ip), vehicle: Klucel (hydroxypropylcellulose) (HPC) 96 % of control | dose: 25.0 mg/kg/injection, schedule: Q01DX009 (ip), vehicle: Klucel (hydroxypropylcellulose) (HPC) 105 % of control | dose: 25.0 mg/kg/injection, schedule: Q04DX003 (ip), vehicle: Klucel (hydroxypropylcellulose) (HPC) 108 % of control | dose: 50.0 mg/kg/injection, schedule: Q01DX009 (ip), vehicle: Klucel (hydroxypropylcellulose) (HPC) 105 % of control | dose: 50.0 mg/kg/injection, schedule: Q04DX003 (ip), vehicle: Klucel (hydroxypropylcellulose) (HPC) 111 % of control | [1] 122 % of control | [2] 116 % of control | [4] 111 % of control

CCN(CC)CCOC(=O)c1ccccc1S(N)(=O)=O
inactive: [6] 104 % of control | [7] 101 % of control | [8] 98 % of control

Cc1ccc(SCCN)cc1
inactive: [9] 105 % of control | dose: 150.0 mg/kg/injection, schedule: Q01DX001 (ip), vehicle: saline 96 % of control

ClC1=C(Cl)C2(Cl)C(Br)C(Br)C1(Cl)C2(Cl)Cl (stereo not drawn)
inactive: dose: 100.0 mg/kg/injection, schedule: Q01DX009 (ip), vehicle: saline sonified 95 % of control | [2] 102 % of control | dose: 200.0 mg/kg/injection, schedule: Q01DX009 (ip), vehicle: saline sonified 96 % of control | [4] 93 % of control | dose: 400.0 mg/kg/injection, schedule: Q01DX009 (ip), vehicle: saline sonified 95 % of control | [5] 96 % of control

O=C(c1ccccc1)C1CN(C2CCCCC2)C1c1ccccc1 (stereo not drawn)
inactive: dose: 100.0 mg/kg/injection, schedule: Q01DX001 (ip), vehicle: Klucel (hydroxypropylcellulose) (HPC) 109 % of control and 97 % of control | [2] 95 % of control | dose: 200.0 mg/kg/injection, schedule: Q01DX001 (ip), vehicle: Klucel (hydroxypropylcellulose) (HPC) 117 % of control and 99 % of control | [4] 93 % of control | dose: 400.0 mg/kg/injection, schedule: Q01DX001 (ip), vehicle: Klucel (hydroxypropylcellulose) (HPC) 97 % of control and 91 % of control | [5] 97 % of control

CCOc1cc(/C=N/N2CCN(/N=C/c3ccc(O)c(OCC)c3)CC2)ccc1O
inactive: [6] 117 % of control | [7] 94 % of control | [8] 88 % of control

CC(=O)Oc1cc(C)c(OC(C)=O)c(C)c1C
inactive: [13] 108 % of control | [10] 92 % of control | [14] 103 % of control | [11] 94 % of control | [15] 96 % of control | [12] 100 % of control and 103 % of control

CC(NC(=O)CNC(=O)OCc1ccccc1)C(N)=O (stereo not drawn) (Cbz-Gly-[ξA]-NH2)
inactive: [12] 102 % of control | dose: 200.0 mg/kg/injection, schedule: Q04DX003 (ip), vehicle: saline with Tween-80 101 % of control | dose: 400.0 mg/kg/injection, schedule: Q04DX003 (ip), vehicle: saline with Tween-80 101 % of control

CC(C)(C)NCc1cc(C(C)(C)C)cc(-c2ccccc2)c1O
inactive: [6] 100 % of control | dose: 100.0 mg/kg/injection, schedule: Q04DX003 (ip), vehicle: saline 97 % of control | [7] 101 % of control | dose: 200.0 mg/kg/injection, schedule: Q04DX003 (ip), vehicle: saline 90 % of control | [8] 99 % of control

CC(=O)Cc1cc(C)c(C(C)=O)c(O)c1C(C)=O
inactive: [2] 103 % of control | [4] 108 % of control | [5] 105 % of control

CN(C)N=Nc1ccc(C(=O)NC(CCC(=O)NN)C(=O)NN)cc1 (stereo not drawn)
inactive: [6] 96 % of control | [7] 111 % of control | [8] 94 % of control

Cc1cc(NC(=O)Nc2ccc(Cl)cc2Cl)no1
inactive: dose: 12.5 mg/kg/injection, schedule: Q01DX009 (ip), vehicle: saline with Tween-80 95 % of control | [13] 91 % of control | [14] 91 % of control and 92 % of control | [15] 95 % of control | dose: 200.0 mg/kg/injection, schedule: Q01DX009 (ip), vehicle: saline with Tween-80 95 % of control
